In the NIST ThermoML archive (doi:10.1021/je100734t):

Test: xn = mol fraction of the nth substance listed
Conditions: 101 kPa, Liquid; for speed of sound: Pulse-echo method

Cc1cccc(C)c1 [1,3-dimethylbenzene] + CCCCCCCCCCO
Conditions | mass density, 293.15 K [kg/m3] | mass density, 303.15 K [kg/m3] | mass density, 313.15 K [kg/m3] | speed of sound, 293.15 K [m/s] | speed of sound, 303.15 K [m/s] | speed of sound, 313.15 K [m/s]
x1 = 0.0627 | 831.48 | 824.51 | 817.53 | 1392 | 1358 | 1324
x1 = 0.1424 | 833.39 | 826.27 | 819.18 | 1388 | 1352 | 1318
x1 = 0.2052 | 834.93 | 827.72 | 820.53 | 1383 | 1347 | 1312
x1 = 0.2618 | 836.35 | 829.06 | 821.78 | 1379 | 1343 | 1308
x1 = 0.3217 | 837.9 | 830.53 | 823.14 | 1375 | 1338 | 1302
x1 = 0.3934 | 839.84 | 832.37 | 824.85 | 1369 | 1332 | 1296
x1 = 0.4989 | 842.94 | 835.28 | 827.6 | 1361 | 1324 | 1287
x1 = 0.5581 | 844.81 | 837.05 | 829.26 | 1357 | 1319 | 1282
x1 = 0.6343 | 847.44 | 839.52 | 831.6 | 1352 | 1313 | 1276
x1 = 0.7131 | 850.41 | 842.31 | 834.24 | 1348 | 1308 | 1270
x1 = 0.7991 | 853.99 | 845.71 | 837.47 | 1344 | 1304 | 1265
x1 = 0.8465 | 856.11 | 847.74 | 839.4 | 1342 | 1302 | 1262
x1 = 0.8964 | 858.52 | 850.09 | 841.61 | 1341 | 1300 | 1260
x1 = 0.9421 | 860.9 | 852.38 | 843.82 | 1341 | 1300 | 1259
x1 = 1 | 864.18 | 855.56 | 846.9 | 1340 | 1300 | 1259
